Source: patent US11173140B2, “Dosing regimens of PKC activators” (COGNITIVE RESEARCH ENTERPRISES, INC., priority 2015, dated 2021)

How the values were obtained:
BDNF = experiment: Brain BDNF by ELISA after i.v. bryostatin dosing regimens; format: in vivo, mice; conditions: for BDNF (% of Control): mouse brain, 24 h after last dose
Procedure: FIG. 2 illustrates the increase in brain BDNF content in mice at 24 hours post intravenous administration of bryostatin. The dose of bryostatin administered is reflected by the number above each bar, while the number within each bar indicates the number of consecutive weeks mice receive a single weekly dose of bryostatin. Control mice were injected with vehicle. BDNF content for each test group was calculated as percent of the corresponding control. BDNF was measured in mouse brain by ELISA 24 h after the last dose. (Mean±SEM, n=3 except Cage 24 n=2, 2-tailed t-test).
Mouse studies were performed using bryostatin-i in accordance with the protocol described below. The following metrics were used to evaluate dosing regimens: induction of brain postsynaptic anchoring protein PSD-95, upregulation of BDNF levels in brain, minimal downregulation of PKC-ε levels, and elevation of brain and plasma concentrations of bryostatin. Groups of 2-3 mice were formed and housed in an approved research animal facility. Water was give ad libitum. A first study involved three groups of mice with animals in each group dosed weekly for 1, 2, 3, or 6 consecutive weeks. Each group had its own control group containing the same number of mice. In this study, mice in the first, second and third groups received an intravenous (i.v.) injection of 10 μg/m^2, 15 μg/m^2, and 25 μg/m^2 dose of bryostatin respectively. For each dose, mice in that group received a single injection of bryostatin weekly for predetermined number of consecutive weeks. Following dosing, mice were sacrificed and the blood and brain of each animal was collected for further analysis.
C57B/6 male mice weighing between 19-21 grams were obtained from Charles River and housed in cages, 1 mouse/cage in a vivarium at the Blanchette Rockefeller Neurosciences institute. Animals were allowed access to water ad libitum.
In these studies, bryostatin was administered intravenously (i.v.) by injection into the tail vein of a mouse. Stock solutions of bryostatin were prepared in dimethyl sulfoxide (DMSO). Prior to administration to a mouse, the stock DMSO solution of bryostatin was diluted to a predetermined concentration by dilution with phosphate buffered saline/saline (PBS/saline).
Three different dosing regimens (injection schedules) were compared. The dosing regimens tested were weekly dosing, dosing every other week (alternating weeks), and spaced or intermittent dosing.
The brain, whole blood, and plasma of mice in each dosing group as well as control mice was collected at 1 hour, 24 hours and 7 days after the last injection of bryostatin. PBMC's were isolated from blood and the brain, blood, plasma and PBMC's were frozen immediately using dry ice. Prior to analysis PBMC's were counted by diluting the sample (10 μl aliquot), 10-fold and the PBMC's counted using a Millipore Scepter cell counter. Every group of test animals had its own control group (N=3). Mice in the control group were injected with vehicle at a frequency similar to the dosing regimen and these animals were sacrificed and tested in parallel with mice in the test group.
Each measurement was performed four times (X4). BDNF levels were measured using ELISA and the concentration of protein PSD-95 was measured by Western Blot. High performance liquid chromatography-mass spectral analysis was used to measure the concentration of bryostatin in blood and brain samples based on a standard curve. Total protein concentrations were measured Coomassie Plus (Bradford) Protein Assay kit.
In this study, mice were administered 10 μg/m^2, 15 μg/m^2, and 25 μg/m^2 dose of bryostatin as a single injection once per week for the indicated number of consecutive weeks. […]

PKC-ε = biological target: T1, PKC-ε (Homo sapiens, UniProt Q02156); experiment: Compassionate use study: PKC-ε level in blood; format: in vivo; conditions: advanced AD patient blood, weekly dose of 25 μg/m^2, three consecutive weeks
T1 construct: from tissue; host or cells: blood of a human advanced Alzheimer's disease patient
T1 sequence (Q02156 1-737): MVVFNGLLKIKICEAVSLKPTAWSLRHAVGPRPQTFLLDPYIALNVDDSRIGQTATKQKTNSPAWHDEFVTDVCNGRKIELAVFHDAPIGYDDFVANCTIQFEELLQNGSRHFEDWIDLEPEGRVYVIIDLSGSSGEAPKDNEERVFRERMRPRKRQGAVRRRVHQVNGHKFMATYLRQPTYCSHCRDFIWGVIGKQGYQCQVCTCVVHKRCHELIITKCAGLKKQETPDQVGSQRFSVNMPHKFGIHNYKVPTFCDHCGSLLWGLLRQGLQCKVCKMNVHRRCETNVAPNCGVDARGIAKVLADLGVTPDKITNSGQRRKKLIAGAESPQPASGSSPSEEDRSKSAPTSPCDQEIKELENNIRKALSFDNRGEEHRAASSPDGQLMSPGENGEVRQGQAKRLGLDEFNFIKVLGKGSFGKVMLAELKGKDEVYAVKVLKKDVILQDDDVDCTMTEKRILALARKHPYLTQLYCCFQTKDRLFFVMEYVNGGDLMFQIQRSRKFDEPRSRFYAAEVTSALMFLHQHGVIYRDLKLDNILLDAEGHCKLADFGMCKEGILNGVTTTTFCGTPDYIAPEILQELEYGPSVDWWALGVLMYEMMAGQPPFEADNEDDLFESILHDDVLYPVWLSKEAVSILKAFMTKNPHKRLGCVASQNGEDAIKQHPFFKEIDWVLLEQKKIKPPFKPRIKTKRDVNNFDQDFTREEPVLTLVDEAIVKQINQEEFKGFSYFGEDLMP
Procedure: FIG. 1 illustrates, inter alia, the level of PKCε in the blood of a human subject receiving 25 μg/m^2 of bryostatin as a single weekly dose for three consecutive weeks followed by cessation of dosing for one week and then two additional weeks of dosing at 25 μg/m^2.
FIG. 1 illustrates early results of a compassionate use (CU) study involving human advanced AD patients. […] The administration comprised three consecutive weeks of dosing followed by cessation for one week and then two additional weeks of dosing. Standard psychometric tests were used to measure cognitive functions and behaviors. The study also evaluated the relationship between the level of bryostatin's target, PKC epsilon, in the blood and the cognitive measurements.
Observed improvements included restored speech and word recognition, restored swallowing, lowered or prevented hallucinations, and improved complex motor functions. […] For example, the observed behavioral improvements included restoration of speech and word recognition, restoration of swallowing, disappearance of hallucinations, return of complex motor activity, including swimming, billiards, conversational interactions, and orientation in time and space.

## CCC/C=C/C=C/C(=O)O[C@H]1/C(=C/C(=O)OC)C[C@H]2C[C@H]([C@@H](C)O)OC(=O)C[C@H](O)C[C@@H]3C[C@H](OC(C)=O)C(C)(C)[C@](O)(C[C@@H]4C/C(=C/C(=O)OC)C[C@H](/C=C/C(C)(C)[C@]1(O)O2)O4)O3 [Bryostatin-1]
BDNF; mice, 10 μg/m^2 i.v., 3 or 6 consecutive weeks
  brain BDNF levels: did not result in elevated levels of brain BDNF
BDNF; mice, 15 μg/m^2, three consecutive weeks
  brain BDNF levels: some increase
BDNF; mice, 25 μg/m^2
  brain BDNF levels: maximum increase
BDNF; mice, 25 μg/m^2, 3 weekly doses, 3 weeks no dosing, 3 more weekly doses
  brain BDNF: remained elevated
BDNF; cage 4: 25 μg/m^2 i.v. once weekly, 3 weeks
  BDNF (% of Control): 192.869 % of Control
BDNF; cage 5: 25 μg/m^2 i.v., 3 on/3 off/3 on (9 weeks)
  BDNF (% of Control): 149.023 % of Control
BDNF; cage 6: 10 μg/m^2 i.v. once weekly, 3 weeks
  BDNF (% of Control): 107.047 % of Control
BDNF; cage 8: 10 μg/m^2 i.v. once weekly, 6 weeks
  BDNF (% of Control): 99.137 % of Control
BDNF; cage 18: 15 μg/m^2 i.v. once weekly, 3 weeks
  BDNF (% of Control): 110.969 % of Control
BDNF; cage 22 (regimen not listed in Tables 2/3)
  BDNF (% of Control): 133.142 % of Control
BDNF; cage 24: 25 μg/m^2 i.v. once weekly, 2 weeks
  BDNF (% of Control): 135.095 % of Control
PKC-ε
  total PKC-ε levels: increased
